According to patent US9187539B2, “Compositions having antiangiogenic activity and uses thereof” (The Johns Hopkins University, priority 2005, dated 2015):

Assays:
[1] = test system: human umbilical vein endothelial cells (HUVECs); experiment: HUVEC proliferation assay (WST-1), 2- and 4-day, 5,000 cells per well; type: cell-based
Experimental: The effect of the various peptides on cell proliferation was assayed, by administering the peptides to human umbilical vein endothelial cells (HUVECs) in culture. 45 peptides belonging to four distinct families of proteins including the thrombospondin-1 containing proteins, the C-X-C chemokines, collagen derived peptides and peptides from tissue inhibitors of metalloproteinases were tested. The potency of each of the peptides was tested using the proliferation assay at 2 days and 4 days following administration of the peptides and a similar assay using a different cell density at 3 days. In the four-day experiments, the cell medium was changed after the second day of incubation and the peptide was replaced at the initial concentration together with the medium. TNP-470 is an antiangiogenic compound that was used as a positive control for assessing anti-angiogenic efficacy. The activity of each polypeptide was, therefore, expressed as a percentage of TNP-470 activity, i.e., the optical density obtained experimentally is scaled such that the negative control is 0% and the positive control is 100% as explained below (FIG. 4). Each plate included a well having HUVEC cells that received 0.1 μg/ml TNP-470. For example, a peptide having the same effect on endothelial cell proliferation would have 100% of the activity of TNP-470. Note that activity could exceed 100%. In this assay, the effects of the predicted anti-angiogenic fragments on the ability of HUVECs to proliferate was characterized. […] A commonly used methodology to test for proliferation is to monitor the viability and metabolic activity of endothelial cells, in the presence of the anti-angiogenic fragments at different concentrations and various time steps. The cell proliferation reagent WST-1 was used as a substrate/assay to measure the metabolic activity of viable cells. WST-1 is a colorimetric, non-radioactive assay and can be performed in a microplate. It is suitable for measuring cell proliferation, cell viability or cytotoxicity. The assay is based on the reduction a red tetrazolium salt, WST-1, by viable, metabolically active, cells to form the yellow formazan crystals soluble in the cell medium. […] The cells are cultured described above. Once cells have reached 80% confluence they are trypsinized and resuspended in EGM-2. The cell density is estimated using a hemocytometer. All of the endothelial cells used were from passage 4 to passage 8. The proliferation assay involved two steps. During the first step the cells, approximately 5,000 cells per well for a 96-well plate, were seeded without any extracellular matrix substrate on the wells overnight (8 hours). The initial cell culture medium was removed using a multichannel pipetor and the candidate peptides were applied. A logarithmic scale of four different concentrations of 0.01 μg/ml, 0.1 μg/ml, 1 μg/ml and 10 μg/ml of each peptide was used. Each of the concentrations was tested in quadruplicate. The viability of the cells was challenged at 2 and 4 days upon the application of the peptide. As a positive control for decreased viability, 0.1 μg/ml of TNP-470 (O-(chloro-acetyl-carbamoyl) fumagillol, a synthetic analogue of fumagillin; TNP-470 was provided by NCI, was provided along with the medium, and as a negative control for normal viability, the cells were cultured without the addition of any agent. The cells were then incubated with 10 μl per well of the red WST-1 reagent for approximately 2 to 4 hours. During this incubation period, viable cells converted, in their mitochondria, the red WST-1 to the yellow formazan crystals which dissolve in the medium. The second step of the assay involved the quantification of the changes in proliferation which was performed by measuring the change in color after lysing the cells. The samples were read using the ELISA plate reader Victor3 V (Perkin Elmer) at a wavelength of […]. The amount of color produced is directly proportional to the number of viable cells. […]

[2] = test system: angiogenesis (endothelial cell invasion of basement membrane extract with bFGF and VEGF); experiment: Directed in vivo angiogenesis assay (DIVAA), subcutaneously implanted angioreactors; set-up: species or system C57BL/6 mice; settings: 200 μg/ml peptide with bFGF and VEGF in the matrix; 11 days after implantation
Experimental: A directed in vivo anti-angiogenesis assay (DIVAA) was used to test the anti-angiogenic efficacy of the alpha 5 fibril of collagen type 4, which had the sequence: SAPFIECHGRGTCNYYANS (SEQ ID NO: 91). […] The peptide was solubilized in buffer solution at 200 μg/ml without an organic solvent. DIVAA is a reproducible and quantitative in-vivo method of assaying angiogenesis. It involves preparation of silicon cylinders of 20 μl volume, closed on one side, filled with some type of extracellular matrix (for example Matrigel or BME-basement membrane extract) with or without premixed angiogenic factors. These angioreactors are then implanted subcutaneously in the dorsal flank of mice. Accompanied with the onset of angiogenesis, vascular endothelial cells migrate into the extracellular matrix and form vessels in the angioreactor. […]
To obtain a quantitative assessment of the angiogenic invasion, the content of the angioreactors was removed from the cylinder and the endothelial cells were stained using FITC-Lectin (FIG. 38A) Once the tubes were extracted from the mice, the inside of the angioreactors was rinsed with 300 μl of a 36 kDa, bacillus-derived neutral metalloproteinase which is commercially available as Cellsperse (Trevigen, Inc., Gaithersburg, Md.), an extracellular matrix digesting solution and the content of the reactors as well as the rinse was transferred into a microtube. […]

[3] = test system: human umbilical vein endothelial cells (HUVECs); experiment: HUVEC proliferation assay (WST-1), 3-day, 2,000 cells per well; type: cell-based; settings: 3-day assay
Experimental: In addition to the 2 and 4 day proliferation experiment where 5,000 cells per well were seeded, the effects of the peptides on the proliferating ability of HUVECs were also studied using cells seeded at a density of 2,000 cells per well. This lower cell seeding density allowed the experiment to be extend for an additional day without changing the cell medium. The effects of the peptides when applied to the cells for 3 consecutive days is also reported herein. The proliferation assay again involved two steps. During the first step 2,000 cells per well for a 96-well plate were seeded without any extracellular matrix substrate on the wells overnight (8 hours). The initial cell culture medium was removed using a multichannel pipetor. To synchronize the cells, the cells were serum starved for 4 hours and the candidate peptides were applied. During serum starvation the cell culture medium was changed from a “full” medium to the “basal” medium, which contained no growth factors or serum. Serum starvation for 4 hours had no effect on the proliferation of the cells. For this assay, the logarithmic scale of four different concentrations of 0.01 μg/ml, 0.1 μg/ml, 1 μg/ml and 10 μg/ml of peptide was used. In addition, a larger concentration of 30 μg/ml peptide was also applied. Each of the concentrations was again tested in quadruplicate. After the third day of peptide application the WST-1 dye was applied for approximately 2 to 4 hours (usually after 3 hours the color saturates). The proliferation was later tested on the ELISA plate reader as described for the 2 and 4 day assay. Note that the 2- and 4-day and the 3-day protocols differed in that 5,000 cells/well versus 2,000 cells/well seeded, respectively.

Sequence | anti-proliferative activity in words ([1]; 2- and 4-day assay, overall) | endothelial cell invasion of the extracellular matrix in angioreactors [2] | inhibition of angiogenesis in angioreactors [2] | anti-proliferative activity in words at high peptide concentration ([3]; high/highest applied concentration (30 μg/ml where stated)) | anti-proliferative activity (maximum or stated level), scaled so that TNP-470 = 100% ([1]; 4 days of peptide application, 0.01-10 μg/ml) | anti-proliferative activity, TNP-470 = 100% ([3]; 30 μg/ml peptide)
SAPFIECHGRGTCNYYANS [SEQ ID NO: 91, α5CIV AAC27816.1: 1626-1644] | low activity | Fewer endothelial cells invaded the extracellular matrix | strongly inhibited angiogenesis | activity increases | – | –
YCNINEVCHYARRNDKSYWL [SEQ ID NO: 93, α6CIV CAI40758.1: 1526-1545] | – | – | – | – | 15% | 80%
